Legend:
adult rat MTτ = experiment: Arachidonic acid dependence of tau assembly, adult rat MTτ; type: biochemical
Procedure: (§1) For most experiments, tau proteins were diluted to 2× the desired concentration in buffer A, then 1/2 in borate saline (0.1 M H3BO3, 25 mM Na2B4O7, 75 mM NaCl) supplemented with 20 mM dithiothreitol (DTT) and 2× the required concentration of free fatty acids (final pH ˜8.4). Assembly was performed at 37° C. in siliconized microfuge tubes. For evaluating the dependence of assembly on ionic strength, tau was diluted 1/10 into 111 mM Tris pH 7.2, 11 mM DTT, supplemented to give the indicated final concentrations of NaCl. At 250 mM NaCl, the measured CMC of arachidonic acid in the Tris buffering system was >2 mM. […] For staining of amyloid filaments, 4% uranyl acetate was used and the H2O rinse was omitted. […] For filament length measurements, random micrographs obtained at a nominal magnification of 15K were digitized and traced using either software from Universal Imaging Corporation or the public domain NIH Image program (for Macintosh; written by W. Rasband at the NIH and available from the Internet by anonymous ftp from zippy.nimh.nih.gov or on floppy disk from NTIS, 5285 Port Royal Rd., Springfield, Va. 22161, part number PB93-504868). […] Because short filaments were sometimes difficult to distinguish from background debri in digitized images, high concentrations of DTT were routinely used in order to maximize the production of longer filaments.

juvenile rat MTτ = molecular target: T1, juvenile rat MTτ (Rattus norvegicus, UniProt P19332, DEL587-617); experiment: Fatty acid dependence of tau assembly, polymer length per field by electron microscopy; type: biochemical; conditions: for Polymer Mass (μm/field) / % maximum: 50 μM free fatty acid, 72 hours; for Polymer Mass (μm/field): juvenile rat MTτ, average ± S.E.M. (n = 12); for % maximum: relative to the maximal assembly achieved with arachidonic acid; for stimulation of tau assembly, qualitative examination of grids: 50 μM, below measured CMC values
T1 construct: killed by decapitation at postnatal day 11 (juveniles); from tissue; host or cells: brain microtubules of P11 Sprague-Dawley rats
T1 sequence (P19332 with tags, fused parts or gaps isoform P19332-6 DEL209-239): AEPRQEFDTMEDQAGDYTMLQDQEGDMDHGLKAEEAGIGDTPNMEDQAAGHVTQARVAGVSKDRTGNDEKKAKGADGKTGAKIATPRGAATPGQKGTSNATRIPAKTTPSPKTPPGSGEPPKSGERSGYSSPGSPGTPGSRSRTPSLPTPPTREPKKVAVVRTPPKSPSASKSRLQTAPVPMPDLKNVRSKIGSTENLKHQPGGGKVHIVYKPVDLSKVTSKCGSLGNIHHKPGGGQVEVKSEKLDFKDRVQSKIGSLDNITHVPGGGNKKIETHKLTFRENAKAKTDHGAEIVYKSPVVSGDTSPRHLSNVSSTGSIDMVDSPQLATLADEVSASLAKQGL
Procedure: (§2) All free fatty acids were purchased in the cis conformation and at maximum available purity from Sigma Chemical Company free fatty acids were diluted into tau and amyloid samples from a 200× ethanolic stock, such that the final ethanol concentration in all samples and controls was 0.5%.
Assembly was performed at 37° C. in siliconized microfuge tubes.
(§3) For staining of amyloid filaments, 4% uranyl acetate was used and the H2O rinse was omitted. […] Because short filaments were sometimes difficult to distinguish from background debri in digitized images, high concentrations of DTT were routinely used in order to maximize the production of longer filaments.

[1] = system: tau purified from porcine whole brain; experiment: Arachidonic acid dependence of tau assembly, porcine whole brain tau; type: biochemical; conditions: 20-80 μM arachidonic acid, 66 hours; no spontaneous assembly
Procedure: as §3, with “Assembly was performed at 37° C. in siliconized microfuge tubes. […] For” for “For”

tau = experiment: Arachidonic acid stimulated polymerization, all tau preparations examined; type: biochemical; conditions: tau concentrations of 2.5-5 μM
Procedure: as §1

[2] = Critical micellar concentration by phase partitioning of phenylnaphthylamine; type: physicochemical; conditions: for CMC: free fatty acids diluted into assembly buffer
Procedure: as §2, with “0.5%. Values for the critical micellar concentration (CMC) were obtained based on the phase partitioning of […] phenylnaphthylamine (Kovatchev et al., 1981) when free fatty acids were diluted into assembly buffer.” for “0.5%.”
For most experiments, tau proteins were diluted to 2× the desired concentration in buffer A, then 1/2 in borate saline (0.1 M H3BO3, 25 mM Na2B4O7, 75 mM NaCl) supplemented with 20 mM dithiothreitol (DTT) and 2× the required concentration of free fatty acids (final pH ˜8.4). Assembly was performed at 37° C. in siliconized microfuge tubes. For evaluating the dependence of assembly on ionic strength, tau was diluted 1/10 into 111 mM Tris pH 7.2, 11 mM DTT, supplemented to give the indicated final concentrations of NaCl. At 250 mM NaCl, the measured CMC of arachidonic acid in the Tris buffering system was >2 mM.

human recombinant tau = molecular target: T2, human recombinant tau (Homo sapiens, UniProt P10636); experiment: Arachidonic acid dependence of tau assembly, human recombinant tau; type: biochemical; conditions: 20-80 μM arachidonic acid, 66 hours; no spontaneous assembly
T2 construct: the conditions defined herein are conducive to assembly of the full length tau protein; polyhistidine tag; host or cells: E. coli
T2 sequence (P10636 1-441 isoform P10636-8): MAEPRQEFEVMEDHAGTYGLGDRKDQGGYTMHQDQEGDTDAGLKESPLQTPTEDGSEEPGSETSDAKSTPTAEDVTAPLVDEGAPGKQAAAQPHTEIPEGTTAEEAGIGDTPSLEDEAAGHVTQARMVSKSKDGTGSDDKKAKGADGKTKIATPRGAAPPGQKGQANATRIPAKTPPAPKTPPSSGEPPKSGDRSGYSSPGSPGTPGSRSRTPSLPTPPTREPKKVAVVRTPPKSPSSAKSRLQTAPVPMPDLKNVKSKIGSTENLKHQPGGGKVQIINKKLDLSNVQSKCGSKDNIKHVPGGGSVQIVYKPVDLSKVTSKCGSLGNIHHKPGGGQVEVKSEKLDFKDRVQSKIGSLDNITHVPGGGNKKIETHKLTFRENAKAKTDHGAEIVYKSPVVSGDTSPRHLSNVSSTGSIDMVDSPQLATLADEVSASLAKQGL
Text: Sprague-Dawley rats were obtained from Charles River, Wilmington, Mass., and killed by decapitation at postnatal day 11 (juveniles) or at greater than six weeks of age (adults). Fresh porcine brains were obtained from Bryan Meat Packing, Westpoint Miss. Detailed protocols for the isolation of tau from whole brain or twice-cycled brain microtubules have been described above. Nonphosphorylated, recombinant human tau (htau40; Goedert et al., 1989) was the gift of Dr. Jeff Kuret, Northwestern University Medical School, Chicago, Ill. Recombinant tau was produced in E. coli as a fusion protein with a polyhistidine tag, and purified to near homogeneity by nickel-chelate and gel filtration chromatography (Carmel et al., 1994). Following purification tau isolates were dialyzed against buffer A (20 mM morpholinoethanesulfonic acid pH 6.8, 80 mM NaCl, 2 mM EGTA, 1 mM MgCl2, 0.1 mM EDTA) and stored at −80° C. Protein concentrations were determined using the method of Lowry (Lowry et al., 1951), after samples in Laemmli sample buffer (Laemmli, 1970) were precipitated with 10 volumes of 10% perchloric acid, 1% phosphotungstic acid. Bovine serum albumin was used as the standard. […] At 250 mM NaCl, the measured CMC of arachidonic acid in the Tris buffering system was >2 mM. […]

Aβ1-40 [3] = molecular target: T3, Aβ1-40 (Homo sapiens, UniProt P05067); experiment: Amyloid peptide assembly, electron microscopy; type: biochemical; conditions: 24 hour incubation with 40 mM oleic acid or 50 mM linoleic acid
T3 construct: Aβ1-40 (Amyloid β-protein, residues 1-40, Sigma); purchased Sigma
T3 sequence (P05067 672-711 limits assumed): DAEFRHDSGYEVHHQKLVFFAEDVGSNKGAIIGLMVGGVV
Procedure: (§4) Aβ1-40 (Amyloid β-protein, residues 1-40, Sigma) was resuspended in Aβ assembly buffer (100 mM Tris pH 7.4, 150 mM NaCl) at a concentration of 0.5 mg/ml, and frozen in aliquots at −80° C. Thawed aliquots were diluted to […] in assembly buffer, and following a 2 hour pre-incubation, were centrifuged for 10 min at 14,000 rpm in an Eppendorf 5415C desktop centrifuge. The clarified solution was then supplemented with free fatty acids (final Aβ concentration ˜[…]), and incubated for 24 hours. Care was taken to perform all procedures at 4° C.
For staining of amyloid filaments, 4% uranyl acetate was used and the H2O rinse was omitted. […] For filament length measurements, random micrographs obtained at a nominal magnification of 15K were digitized and traced using either software from Universal Imaging Corporation or the public domain NIH Image program (for Macintosh; written by W. Rasband at the NIH and available from the Internet by anonymous ftp from zippy.nimh.nih.gov or on floppy disk from NTIS, 5285 Port Royal Rd., Springfield, Va. 22161, part number PB93-504868). […] Because short filaments were sometimes difficult to distinguish from background debri in digitized images, high concentrations of DTT were routinely used in order to maximize the production of longer filaments.

Aβ1-40 [4] = molecular target: T3, Aβ1-40; experiment: Amyloid peptide assembly, thioflavin T fluorescence spectroscopy; type: biochemical; conditions: for fatty acid concentration giving significant increases in polymer content: thioflavin T fluorescence, 24 hours
Procedure: as §4
Fluorescence spectroscopy was performed essentially as described (Castano et al., 1995). Aliquots were diluted 1/6 into 67 mM glycine pH 9, […] thioflavin T, vortexed, and placed in a quartz cuvette. Samples were read on a Perkin Elmer LS-50B luminescence spectrometer, excitation=435 nm, emission=485 nm, slit widths=5 nm. The integrated intensity was averaged from the initial ten, 10 sec sampling intervals. The signal was stable for at least several hours. The fluorescence of five samples lacking Aβ was averaged and subtracted as background from all readings.

[5] = system: microtubule tau purified from P11 rat, adult rat; conditions: glutathione 1-10 mM
Procedure: In general, tau stored at −80° C. in buffer A was thawed at 4° C., diluted into 100 mM Tris pH 7.2 containing DTT or b-mercaptoethanol (bME), and incubated at 37° C. 100 mM MES was used for experiments requiring buffering below pH 7. Final tau concentrations were in the range of 1-10 μM. […] Samples were deposited in 10 ml aliquots onto 400 mesh nickel grids coated with 0.4% formvar, rinsed with 5 drops H2O, and stained with 5 drops of 2% uranyl acetate, the last drop sitting 1 minutes prior to blotting. Grids were examined using a JEOL JEM-100CX transmission electron microscope operated at 80 kV. For filament length measurements, micrographs obtained at a nominal magnification of 15K (FIG. 6) or 10K (FIGS. 7 and 9) were digitized using a SIT68 camera (MTI), and lengths were determined using software from Universal Imaging Corporation. Only filaments contained completely within a field and measuring at least 50 nm were included in data sets. Fields selected at random were chosen at low illumination and without the aid of the 10× binoculars, so that Formvar integrity could be assessed without viewing the filaments present.

Polymer Mass (μm/field) (juvenile rat MTτ) | % maximum (juvenile rat MTτ) | CMC [2] | SMILES | other results
– | – | – | O[C@H](CS)[C@H](O)CS (racemic) [DTT, dithiothreitol] | decrease in total polymer mass (adult rat MTτ; assembly at 10 mM DTT compared with 0.01-1.0 mM DTT, adult tau, 50 μM arachidonic acid): > 50%
11.81 ± 1.51 μm/field | 48% | – | CCC=CCC=CCC=CCC=CCC=CCCCC(=O)O [5,8,11,14,17-eicosapentaenoic acid] | –
24.51 ± 2.58 μm/field | 100% | 0.16 mM | CCCCCC=CCC=CCC=CCC=CCCCC(=O)O [5,8,11,14-eicosatetraenoic acid (20:4), 5,8,11,14-eicosatetraenoic acid] | apparent threshold for stimulation of tau assembly (juvenile rat MTτ; juvenile MTτ, longest timepoint tested): less than 10 μμM; filament formation, tau purified from porcine whole brain [1]: Filaments were observed; polymerization of adult rat MTτ (adult rat MTτ; arachidonic acid 10-40 μM): stimulated the polymerization; lowest concentration inducing assembly (tau): 10 to 20 µM; CMC in the Tris buffering system ([2]; 250 mM NaCl, Tris buffering system): > 2 mM; filament formation, human recombinant tau (human recombinant tau): Filaments were observed
7.99 ± 1.55 μm/field | 33% | – | CCCCCC=CCC=CCC=CCCCCCCC(=O)O [8,11,14-eicosatrienoic acid (20:3), 8,11,14-eicosatrienoic acid] | –
14.74 ± 3.31 μm/field | 60% | 0.21 mM | CCCCC/C=C\C/C=C\CCCCCCCC(=O)O [9,12-linoleic acid (18:2), 9,12-linoleic acid] | amyloid filament lengths by electron microscopy (Aβ1-40 [3]): dramatic increase in filament lengths; relative potency as inducer of amyloid assembly (Aβ1-40 [4]; at higher concentrations of free fatty acids (above 40 μM)): more potent inducer of amyloid assembly; fatty acid concentration giving significant increases in polymer content (Aβ1-40 [4]): 40 µM
23.69 ± 4.11 μm/field | 97% | 0.44 mM | CCCCCC/C=C\CCCCCCCC(=O)O [9-palmitoleic acid (16:1), 9-palmitoleic acid] | –
1.20 ± 0.32 μm/field | 5% | – | CCCCCC=CCC=CCCCCCCCCCC(=O)O [11,14-eicosadienoic acid (20:2), 11,14-eicosadienoic acid] | –
8.23 ± 1.36 μm/field | 34% | – | CCCCCCCCC=CCCCCCCCCCC(=O)O [11-eicosenoic acid (20:1), 11-eicosenoic acid] | –
– | – | – | CCCCC/C=C\C/C=C\C/C=C\C/C=C\CCCC(=O)OCC [ethyl ester of arachidonic acid] | stimulation of tau assembly, qualitative examination of grids (juvenile rat MTτ): did not appear to be stimulated
– | – | – | N[C@@H](CCC(=O)N[C@@H](CS)C(=O)NCC(=O)O)C(=O)O [glutathione] | assembly of microtubule tau (rat) [5]: promoted the assembly
– | – | – | CCCCC/C=C\C/C=C\C/C=C\C/C=C\CCCC(=O)OC [methyl ester of arachidonic acid] | stimulation of tau assembly, qualitative examination of grids (juvenile rat MTτ): did not appear to be stimulated
5.50 ± 0.76 μm/field | 22% | >1 mM | CCCCCCCCCCCCCC(=O)O [myristic acid (14:0), myristic acid] | –
7.37 ± 0.92 μm/field | 30% | – | CCCCCCCCCCCCCCCC(=O)O [palmitic acid (16:0), palmitic acid] | –
3.60 ± 0.54 μm/field | 15% | >1 mM | CCCCCCCCCCCCCCCCCC(=O)O [stearic acid (18:0), stearic acid] | –

SMILES | Polymer Mass (μm/field) (juvenile rat MTτ) | % maximum (juvenile rat MTτ) | CMC [2] | other results
CC/C=C\C/C=C\C/C=C\CCCCCCCC(=O)O [9,12,15-linolenic acid (18:3), 9,12,15-linolenic acid] | 4.01 ± 0.72 μm/field | 16% | – | –
CCCCCCCC/C=C\CCCCCCCC(=O)O [9-oleic acid (18:1), 9-oleic acid] | 7.36 ± 1.77 μm/field | 30% | 0.59 mM | amyloid filament lengths by electron microscopy (Aβ1-40 [3]): dramatic increase in filament lengths; fatty acid concentration giving significant increases in polymer content (Aβ1-40 [4]): 40 µM

Source: patent publication US6458847B1, “Method for screening for drugs useful in inhibition of polymerization of aβ and tau peptides” (University of Alabama at Birmingham Research Foundation, priority 1995, dated 2002)
